Tests used:
Type in all cases: biochemical
[1] = molecular target: T1, TRKC (Homo sapiens, UniProt Q16288); test: Determination of inhibitory activity against TRKC kinase (ADP-Glo Kinase Assay); conditions: ATP 5 μM, Poly (4:1 Glu, Tyr) Peptide 0.03 mg/ml
T1 construct: purchased Carna 08-196
Description: (§1) Assay: Determination of Inhibitory Activity Against TRKA/B/C Kinases
(§2) 1× volume of 5× kinase reaction buffer and 4× volume of water; 5 mM MgCl2; and 1 mM DTT.
(§3) • 1). Gradiently diluting a compound 4-fold in a dilution plate with DMSO, with a starting compound concentration of 1000 nM. • 2). Diluting the compound 50-fold into 1× kinase reaction buffer and shaking it on a shaker for 20 minutes. • 3). Formulating 2× kinase with 1× of enzyme reaction buffer. • 4). Adding 2 μl kinase (formulated in step 3) to each well of the reaction plate. • 5). Adding 1 μl of the compound diluted in buffer to each well, sealing the plate with a sealing membrane and centrifuging the plate at 1000 g for 30 seconds and leaving it at room temperature for 10 minutes. • 6). Formulating 4×ATP & sub mixture with 1× enzyme reaction buffer and adding 1 μl of 4×ATP & sub mixture to the reaction plate. • 7). Sealing the plate with a sealing membrane and centrifuging the plate at 1000 g for 30 seconds and allowing it to react at room temperature for 60 minutes. • 8). Transferring 4 μl of ADP-Glo to 384 reaction plate and centrifuging the plate at 1000 rpm/min for 1 min, and then incubating it at 25° C. for 40 min. • 9). Transferring 8 μl of Detection solution to 384 reaction plate and centrifuging the plate at 1000 rpm/min for 1 min and incubating it at 25° C. for 40 min. • 10) Reading the RLU (Relative luminescence unit) signal using a Biotek multifunctional plate reader. The signal intensity was used to characterize the activity degree of kinase.
(§4) The IC50 (half inhibition concentration) of a compound was obtained using the following non-linear fitting equation, wherein data analysis was performed using Graphpad 6.0 software.
(§5) Y=Bottom+(Top−Bottom)/(1+10^((Log IC50−X)*Hill Slope)) • X: log value of compound concentration; and Y: inhibition rate (% inhibition)
(§6) Data were exported from Biotek and analyzed manually. The ratios were converted to inhibition rates and IC50 was calculated by Prism GraphPad 6.0 from the inhibition rates. IC50 was calculated again by the ratios to verify accuracy of the results.

[2] = molecular target: T2, TRKB (Homo sapiens, UniProt Q16620); test: Determination of inhibitory activity against TRKB kinase (ADP-Glo Kinase Assay); conditions: ATP 20 μM, Poly (4:1 Glu, Tyr) Peptide 0.03 mg/ml
T2 construct: purchased SignalChem N17-11G
Description: as §1, §2, §3, §4, §5, §6

[3] = molecular target: T3, TRKA (Homo sapiens, UniProt P04629); test: Determination of inhibitory activity against TRKA kinase (ADP-Glo Kinase Assay); conditions: ATP 5 μM, Poly (4:1 Glu, Tyr) Peptide 0.03 mg/ml
T3 construct: purchased Carna 08-186
Description: as §1, §2, §3, §4, §5, §6

T2 sequence (Q16620 32-822): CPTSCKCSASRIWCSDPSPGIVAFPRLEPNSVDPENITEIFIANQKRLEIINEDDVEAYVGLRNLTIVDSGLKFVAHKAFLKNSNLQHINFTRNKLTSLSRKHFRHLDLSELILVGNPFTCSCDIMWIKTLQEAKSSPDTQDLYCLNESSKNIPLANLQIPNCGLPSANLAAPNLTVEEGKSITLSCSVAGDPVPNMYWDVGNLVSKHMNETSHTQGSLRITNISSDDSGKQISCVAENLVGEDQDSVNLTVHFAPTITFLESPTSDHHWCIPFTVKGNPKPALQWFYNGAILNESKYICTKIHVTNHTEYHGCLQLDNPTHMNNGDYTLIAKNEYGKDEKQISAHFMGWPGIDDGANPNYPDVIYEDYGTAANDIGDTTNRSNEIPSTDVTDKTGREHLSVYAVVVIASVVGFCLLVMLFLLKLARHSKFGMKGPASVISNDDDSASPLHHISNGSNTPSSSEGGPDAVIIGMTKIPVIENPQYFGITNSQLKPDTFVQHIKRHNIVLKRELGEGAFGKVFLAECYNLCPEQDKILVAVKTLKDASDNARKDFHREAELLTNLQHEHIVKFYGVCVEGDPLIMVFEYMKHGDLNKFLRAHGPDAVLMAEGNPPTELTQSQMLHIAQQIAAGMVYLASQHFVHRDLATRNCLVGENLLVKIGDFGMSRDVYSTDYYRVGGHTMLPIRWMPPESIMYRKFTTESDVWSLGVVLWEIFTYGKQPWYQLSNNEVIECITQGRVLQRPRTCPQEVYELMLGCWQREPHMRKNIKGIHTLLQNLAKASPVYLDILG
T1 sequence (Q16288 32-839): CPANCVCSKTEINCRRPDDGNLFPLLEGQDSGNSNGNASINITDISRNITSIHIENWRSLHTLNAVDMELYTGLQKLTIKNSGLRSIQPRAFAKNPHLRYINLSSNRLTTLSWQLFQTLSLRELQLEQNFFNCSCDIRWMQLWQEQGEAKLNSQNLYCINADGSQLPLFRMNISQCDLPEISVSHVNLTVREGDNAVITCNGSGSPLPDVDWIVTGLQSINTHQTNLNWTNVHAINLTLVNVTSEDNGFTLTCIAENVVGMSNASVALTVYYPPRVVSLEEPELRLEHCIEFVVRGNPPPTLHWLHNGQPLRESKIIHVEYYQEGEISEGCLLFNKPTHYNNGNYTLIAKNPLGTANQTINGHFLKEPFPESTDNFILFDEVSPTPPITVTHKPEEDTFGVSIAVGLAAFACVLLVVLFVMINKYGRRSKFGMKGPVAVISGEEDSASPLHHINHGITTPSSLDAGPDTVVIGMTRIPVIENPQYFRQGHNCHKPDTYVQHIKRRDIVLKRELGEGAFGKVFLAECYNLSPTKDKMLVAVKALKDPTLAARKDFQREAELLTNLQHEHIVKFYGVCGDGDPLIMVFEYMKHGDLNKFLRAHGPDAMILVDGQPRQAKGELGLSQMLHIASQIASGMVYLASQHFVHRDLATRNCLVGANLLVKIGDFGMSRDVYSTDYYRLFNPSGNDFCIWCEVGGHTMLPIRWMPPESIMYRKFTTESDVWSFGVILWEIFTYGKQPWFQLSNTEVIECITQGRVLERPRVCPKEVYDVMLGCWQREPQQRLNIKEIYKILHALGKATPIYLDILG
T3 sequence (P04629 33-796): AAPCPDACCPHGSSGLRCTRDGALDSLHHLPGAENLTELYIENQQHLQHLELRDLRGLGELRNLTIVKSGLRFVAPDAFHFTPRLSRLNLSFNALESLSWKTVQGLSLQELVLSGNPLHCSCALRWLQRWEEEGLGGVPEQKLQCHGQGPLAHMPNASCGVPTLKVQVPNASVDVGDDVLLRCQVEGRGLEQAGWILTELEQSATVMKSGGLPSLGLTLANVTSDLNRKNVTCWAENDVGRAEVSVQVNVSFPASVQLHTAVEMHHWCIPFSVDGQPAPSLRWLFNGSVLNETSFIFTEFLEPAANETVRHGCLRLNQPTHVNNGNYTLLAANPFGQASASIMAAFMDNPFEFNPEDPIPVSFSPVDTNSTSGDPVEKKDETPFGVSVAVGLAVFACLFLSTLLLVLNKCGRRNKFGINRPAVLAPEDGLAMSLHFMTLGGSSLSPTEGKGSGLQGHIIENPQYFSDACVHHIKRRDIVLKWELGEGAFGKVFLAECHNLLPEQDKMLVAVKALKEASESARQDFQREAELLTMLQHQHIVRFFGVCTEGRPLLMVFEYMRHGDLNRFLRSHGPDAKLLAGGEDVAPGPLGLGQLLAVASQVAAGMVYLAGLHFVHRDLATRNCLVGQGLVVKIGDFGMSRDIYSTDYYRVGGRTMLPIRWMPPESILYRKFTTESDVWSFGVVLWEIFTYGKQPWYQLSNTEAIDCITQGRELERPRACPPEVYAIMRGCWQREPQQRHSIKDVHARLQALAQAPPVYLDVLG

Row | IC50 [1] | IC50 [2] | IC50 [3] | Structure (SMILES)
1 | 5.5 nM | 2.8 nM | 1.8 nM | CC(Nc1ccc2[nH]nc(-c3nc4c([nH]3)CNC4)c2c1)c1cc(F)cc(F)c1 (stereo not drawn) [Example 1]
2 | 3.3 nM | 3.4 nM | 3.5 nM | Fc1cc(F)cc(CNc2ccc3[nH]nc(-c4nc5c([nH]4)CN(CC4CCNCC4)C5)c3c2)c1 [Example 2, N-(3,5-difluorobenzyl)-3-(5-(piperidin-4-ylmethyl)-1,4,5,6-tetrahydropyrrolo[3,4-d]imidazol-2-yl)-1H-indazol-5-amine]
3 | 11 nM | 5.5 nM | 6.4 nM | CS(=O)(=O)N1Cc2nc(-c3n[nH]c4ccc(Cc5cc(F)cc(F)c5)cc34)[nH]c2C1 [Example 3, 5-(3,5-difluorobenzyl)-3-(5-(methylsulfonyl)-1,4,5,6-tetrahydropyrrolo[3,4-d]imidazol-2-yl)-1H-indazole]
4 | 3.1 nM | 2.4 nM | 2 nM | CC(Oc1ccc2[nH]nc(-c3nc4c([nH]3)CN(C3CCN(C)CC3)C4)c2c1)c1cc(F)cc(F)c1 (stereo not drawn) [Example 4, 5-(1-(3,5-difluorophenyl)ethoxy)-3-(5-(1-methylpiperidin-4-yl)-1,4,5,6-tetrahydropyrrolo[3,4-d]imidazol-2-yl)-1H-indazole]
5 | 3.1 nM | 2.1 nM | 2.3 nM | CC(Oc1ccc2[nH]nc(-c3nc4c([nH]3)CN(C(=O)N(C)C)C4)c2c1)c1cc(F)cc(F)c1 (stereo not drawn) [Example 5, 2-(5-(1-(3,5-difluorophenyl)ethoxy)-1H-indazol-3-yl)-N,N-dimethyl-4,6-dihydropyrrolo[3,4-d]imidazole-5(1H) formamide]
6 | 1.4 nM | 3.2 nM | 0.97 nM | CC(Oc1ccc2[nH]nc(-c3nc4c([nH]3)CN(C(=O)OCCN(C)C)C4)c2c1)c1cc(F)cc(F)c1 (stereo not drawn) [Example 6, 2-(Dimethylamino)ethyl 2-(5-(1-(3,5-difluorophenyl)ethoxy)-1H-indazol-3-yl)-4,6-dihydropyrrolo[3,4-d]imidazole-5(1H)-carboxylate]
7 | 1.3 nM | 3.4 nM | 1.4 nM | CC(Oc1ccc2[nH]nc(-c3nc4c([nH]3)CN(C(=O)C3CCN(C)CC3)C4)c2c1)c1cc(F)cc(F)c1 (stereo not drawn) [Example 7, (2-(5-(1-(3,5-difluorophenyl)ethoxy)-1H-indazol-3-yl)-4,6-dihydropyrrolo[3,4-d]imidazol-5(1H)-yl)(1-methylpiperidin-4-yl)ketone]
8 | 1.6 nM | 2.8 nM | 0.7 nM | CC(Oc1ccc2[nH]nc(-c3nc4c([nH]3)CN(C3CCN(C)CC3)CC4)c2c1)c1cc(F)cc(F)c1 (stereo not drawn) [Example 8, 2-(5-(1-(3,5-difluorophenyl)ethoxy)-1H-indazol-3-yl)-5-(1-methylpiperidin-4-yl)-4,5,6,7-tetrahydro-3H-imidazo[4,5-c]pyridine]
9 | 4.6 nM | 28 nM | 1.7 nM | C[C@H](Oc1ccc2[nH]nc(-c3nc4c([nH]3)CN(CC3CCN(C)CC3)C4)c2c1)c1cc(F)cc(F)c1 [Example 9]
10 | 1.3 nM | 2.5 nM | 0.77 nM | CC(Oc1ccc2[nH]nc(-c3nc4c([nH]3)CN(C(=O)OC3CCN(C)CC3)C4)c2c1)c1cc(F)cc(F)c1 (stereo not drawn) [Example 10, 1-Methylpiperidin-4-yl-2-(5-(1-(3,5-difluorophenyl)ethoxy)-1H-indazol-3-yl)-4,6-dihydropyrrolo[3,4-d]imidazole-5(1H)-carboxylate]
11 | 2.4 nM | 2.2 nM | 1.4 nM | CC(Nc1ccc2[nH]nc(-c3nc4c([nH]3)CN(CC3CCNCC3)C4)c2c1)c1cc(F)cc(F)c1 (stereo not drawn) [Example 11, N-(1-(3,5-difluorophenyl)ethyl)-3-(5-(piperidin-4-ylmethyl)-1,4,5,6-tetrahydropyrrolo[3,4-d]imidazol-2-yl)-1H-indazol-5-amine]
12 | 9.2 nM | 4.4 nM | 6.9 nM | O=C(C1CC1)N1Cc2nc(-c3n[nH]c4ccc(Cc5cc(F)cc(F)c5)cc34)[nH]c2C1 [Example 13, Cyclopropyl(2-(5-(3,5-difluorobenzyl)-1H-indazol-3-yl)-4,6-dihydropyrrolo [3,4-d]imidazol-5(1H)-yl)ketone]
13 | 11.5 nM | 9.5 nM | 3.5 nM | CN1CCC(N2Cc3nc(-c4n[nH]c5ccc(Cc6cc(F)cc(F)c6)cc45)[nH]c3C2)CC1 [Example 14, 5-(3,5-Difluorobenzyl)-3-(5-(1-methylpiperidin-4-yl)-1,4,5,6-tetrahydropyrrolo[3,4-d]imidazol-2-yl)-1H-indazole]
14 | 0.86 nM | 0.65 nM | 0.75 nM | CC(Oc1ccc2[nH]nc(-c3nc4c([nH]3)CN(CC3CCN(C)CC3)C4)c2c1)c1cc(F)cc(F)c1 (stereo not drawn) [Example 15]
15 | 1.8 nM | 1.9 nM | 1.3 nM | CC(Oc1ccc2[nH]nc(-c3nc4c([nH]3)CN(CC3CCNCC3)C4)c2c1)c1cc(F)cc(F)c1 (stereo not drawn) [Example 16, 5-(1-(3,5-Difluorophenyl)ethoxy)-3-(5-(piperidin-4-ylmethyl)-1,4,5,6-tetrahydropyrrolo[3,4-d]imidazol-2-yl)-1H-indazole]
16 | 1.5 nM | 4.2 nM | 0.66 nM | CCN1CCC(CN2Cc3nc(-c4n[nH]c5ccc(OC(C)c6cc(F)cc(F)c6)cc45)[nH]c3C2)CC1 (stereo not drawn) [Example 17]
17 | 1.5 nM | 1.1 nM | 0.8 nM | CC(Oc1ccc2[nH]nc(-c3nc4c([nH]3)CN(CCN(C)C)C4)c2c1)c1cc(F)cc(F)c1 (stereo not drawn) [Example 18, 2-(2-(5-(1-(3,5-Difluorophenyl)ethoxy)-1H-indazol-3-yl)-4,6-dihydropyrrolo[3,4-d]imidazol-5(1H)-yl)-N,N-dimethyl ethan-1-amine]
18 | 4.1 nM | 4.8 nM | 1.2 nM | CC(=O)N1CCC(CN2Cc3nc(-c4n[nH]c5ccc(OC(C)c6cc(F)cc(F)c6)cc45)[nH]c3C2)CC1 (stereo not drawn) [Example 19, 1-(4-((2-(5-(1-(3,5-Difluorophenyl)ethoxy)-1H-indazol-3-yl)-4,6-dihydropyrrolo[3,4-d]imidazol-5(1H)-yl)methyl)piperidin-1-yl)ethan-1-one]
19 | 2.9 nM | 4 nM | 1.5 nM | CC(Oc1ccc2[nH]nc(-c3nc4c([nH]3)CN(CC3CCN(C)C3)C4)c2c1)c1cc(F)cc(F)c1 (stereo not drawn) [Example 20]
20 | 2.5 nM | 6.8 nM | 1.8 nM | CC(Oc1ccc2[nH]nc(-c3nc4c([nH]3)CN(CCC3CCN(C)CC3)C4)c2c1)c1cc(F)cc(F)c1 (stereo not drawn) [Example 21, 5-(1-(3,5-Difluorophenyl)ethoxy)-3-(5-(2-(1-methylpiperidin-4-yl)ethyl)-1,4,5,6-tetrahydropyrrolo[3,4-d]imidazol-2-yl)-1H-indazole]
21 | 0.51 nM | 0.82 nM | 0.47 nM | CC(Oc1ccc2[nH]nc(-c3nc4c([nH]3)CN(CC3CCN(C(C)C)CC3)C4)c2c1)c1cc(F)cc(F)c1 (stereo not drawn) [Example 22]
22 | 1.1 nM | 1.5 nM | 0.59 nM | CC(Oc1ccc2[nH]nc(-c3nc4c([nH]3)CN(C(C)C3CCN(C)CC3)C4)c2c1)c1cc(F)cc(F)c1 (stereo not drawn) [Example 23, 5-(1-(3,5-Difluorophenyl)ethoxy)-3-(5-(1-(1-methylpiperidin-4-yl)ethyl)-1,4,5,6-tetrahydropyrrolo[3,4-d]imidazol-2-yl)-1H-indazole]
